Laboratory results reported in article PMC8475189, “The CopA2-Type P1B-Type ATPase CcoI Serves as Central Hub for cbb3-Type Cytochrome Oxidase Biogenesis” (Frontiers in Microbiology, 2021).

Biological target: T1, CcoI (Rhodobacter capsulatus, UniProt D5ARQ0)
T1 construct: full-length with C-terminal Myc-His tag (pBAD-ccoI-Myc/HisA), expressed in E. coli C43(DE3), purified in DDM, monomeric SEC peak; strain MT1131 is printed as wild type and as genomic template of the ccoI-senC fusion
T1 sequence (D5ARQ0 1-742): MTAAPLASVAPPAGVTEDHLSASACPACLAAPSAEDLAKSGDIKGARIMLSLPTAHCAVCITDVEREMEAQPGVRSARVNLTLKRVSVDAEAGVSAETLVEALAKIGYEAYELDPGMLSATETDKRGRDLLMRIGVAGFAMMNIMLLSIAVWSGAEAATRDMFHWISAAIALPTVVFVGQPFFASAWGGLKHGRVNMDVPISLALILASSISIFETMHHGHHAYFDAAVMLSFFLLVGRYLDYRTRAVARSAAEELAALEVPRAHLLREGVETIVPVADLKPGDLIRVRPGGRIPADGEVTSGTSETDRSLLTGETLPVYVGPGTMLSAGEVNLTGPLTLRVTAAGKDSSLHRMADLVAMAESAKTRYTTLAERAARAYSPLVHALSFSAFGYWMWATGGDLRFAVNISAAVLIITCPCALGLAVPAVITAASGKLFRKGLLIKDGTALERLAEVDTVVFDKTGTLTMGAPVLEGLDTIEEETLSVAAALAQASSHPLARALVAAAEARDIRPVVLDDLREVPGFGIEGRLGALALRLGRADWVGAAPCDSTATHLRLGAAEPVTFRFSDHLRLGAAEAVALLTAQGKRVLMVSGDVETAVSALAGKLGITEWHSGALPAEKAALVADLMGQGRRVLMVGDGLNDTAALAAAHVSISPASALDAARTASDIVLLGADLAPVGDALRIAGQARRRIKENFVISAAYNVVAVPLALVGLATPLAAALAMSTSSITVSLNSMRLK
Assay: […] phosphate release (charcoal, scintillation)
Assay type: biochemical
Conditions: labelled compound; 10-100 µM ATP, 10 mM MgCl2, 50 mM Tris pH 7.5, 300 mM NaCl, 0.03% DDM, 35 °C; no added Cu

`Nc1ncnc2c1ncn2[C@@H]1O[C@H](COP(=O)(O)OP(=O)(O)OP(=O)(O)O)[C@@H](O)[C@H]1O` [ATP] was tested, and the “33P phosphate release (charcoal, scintillation)” value was “ATPase activity of detergent-solubilized, purified CcoI”.
